Results on two molecules are retold here after ChEMBL document CHEMBL1157707, “Lead optimization of N-3-substituted 7-morpholinotriazolopyrimidines as dual phosphoinositide 3-kinase/mammalian target of rapamycin inhibitors: discovery of PKI-402” (J Med Chem, 2010).

Broadly, the IC50 is the concentration needed to halve the response being measured. Read a low IC50 as greater potency. By half-life is commonly meant the time needed for the level to fall by half in the phase considered. For orientation: solubility means how much of the substance goes into solution per volume. A lower solubility goes with a poorly soluble substance.

Molecules are shown by their SMILES. Converted amounts (≈) assume the structure as drawn. The source made the active and inactive calls. A value given as a limit tells only on which side of the number the result lay.

Series [1] concerns the target Phosphatidylinositol 4,5-bisphosphate 3-kinase catalytic subunit gamma isoform (Homo sapiens, UniProt P48736). In words: Inhibition of human PI3Kgamma by fluorescence polarization format assay. (In fluorescence polarisation assays a small probe gives low polarisation when free and higher when bound to something large.)
For series [2], the target named is Serine/threonine-protein kinase mTOR (Homo sapiens, UniProt P42345). In words: Inhibition of mTOR by DELFIA.
In series [3] the test system is MDA-MB-361. In words: cells. The following applies: Homo sapiens, MDA-MB-361, 72 h.
Series [4] in a line: Inhibition of Akt T308 phosphorylation in human MDA-MB-361 cells by Western blotting. Format: cell-based. A general note: Immunoblotting shows a protein as a band on a membrane.
In series [5] the target is Phosphatidylinositol 4,5-bisphosphate 3-kinase catalytic subunit alpha isoform (Homo sapiens, UniProt P42336).
Chain of Phosphatidylinositol 4,5-bisphosphate 3-kinase catalytic subunit alpha isoform (P42336 whole entry, canonical isoform): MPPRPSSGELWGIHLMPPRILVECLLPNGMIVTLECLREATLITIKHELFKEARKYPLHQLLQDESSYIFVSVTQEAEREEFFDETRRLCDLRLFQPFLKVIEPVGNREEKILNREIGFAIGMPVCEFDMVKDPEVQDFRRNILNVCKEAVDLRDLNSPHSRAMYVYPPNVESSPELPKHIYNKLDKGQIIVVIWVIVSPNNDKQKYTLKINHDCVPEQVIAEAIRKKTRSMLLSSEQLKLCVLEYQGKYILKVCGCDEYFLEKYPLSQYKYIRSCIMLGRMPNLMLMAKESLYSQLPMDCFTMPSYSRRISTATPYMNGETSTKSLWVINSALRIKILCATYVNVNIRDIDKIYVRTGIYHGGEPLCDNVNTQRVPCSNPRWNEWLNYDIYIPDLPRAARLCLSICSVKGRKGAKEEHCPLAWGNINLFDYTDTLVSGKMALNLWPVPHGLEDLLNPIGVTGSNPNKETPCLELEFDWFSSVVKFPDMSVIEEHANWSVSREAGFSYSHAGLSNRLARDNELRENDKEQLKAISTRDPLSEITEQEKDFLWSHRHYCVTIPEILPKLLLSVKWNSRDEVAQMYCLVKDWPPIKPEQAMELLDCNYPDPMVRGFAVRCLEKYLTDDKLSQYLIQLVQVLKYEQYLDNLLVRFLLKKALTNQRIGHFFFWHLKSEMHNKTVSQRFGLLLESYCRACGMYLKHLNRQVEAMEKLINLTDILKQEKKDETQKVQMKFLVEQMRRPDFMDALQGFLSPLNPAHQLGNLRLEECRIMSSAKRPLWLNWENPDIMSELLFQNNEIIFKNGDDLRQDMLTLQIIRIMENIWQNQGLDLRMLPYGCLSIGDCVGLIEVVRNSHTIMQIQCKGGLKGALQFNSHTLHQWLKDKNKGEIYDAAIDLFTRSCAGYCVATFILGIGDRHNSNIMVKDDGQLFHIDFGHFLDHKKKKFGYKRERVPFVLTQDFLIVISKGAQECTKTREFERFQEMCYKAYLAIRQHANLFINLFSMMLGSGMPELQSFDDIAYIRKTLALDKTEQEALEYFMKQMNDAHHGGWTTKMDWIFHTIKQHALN
A further series relates to PC-3. In words: cells. The following applies: Homo sapiens, PC-3, 72 h.
Series [6] has as its system Mus musculus. In words: Antitumor activity against human MDA-MB-361 cells implanted in mouse assessed as suppression of P70S6K phosphorylation at 50 mg/kg, iv after 8 hrs. Format: functional, organism-based. Further details: dose 50 mg/kg.
Series [7] is filed under the species Mus musculus. In words: Toxicity in mouse assessed as weight loss. Format: organism-based. As to conditions: in vivo.
The nature of a further series: cells. As to conditions: Homo sapiens, MDA-MB-361, 4 h.
Series [8] concerns Mus musculus. In words: Antitumor activity against human MDA-MB-361 cells implanted in mouse assessed as suppression of S6 phosphorylation at 50 mg/kg, iv after 8 hrs. Format: functional, organism-based. Further details: dose 50 mg/kg.
Series [9] in a line: Metabolic stability in human liver microsomes assessed as half life. Format: ADME, Microsome. (Liver microsomes are vesicles of endoplasmic reticulum, rich in cytochrome P450 enzymes.)
The subject of series [10] is Mus musculus. In words: Antitumor activity against human MDA-MB-361 cells implanted in mouse assessed as suppression of Akt T308 phosphorylation at 50 mg/kg, iv after 8 hrs. Format: functional, organism-based. Further details: dose 50 mg/kg.
Series [11] deals with Mus musculus. In words: Antitumor activity against human MDA-MB-361 cells implanted in mouse assessed as […] of cleavage of PARP at 50 mg/kg, iv after 8 hrs. Format: functional, organism-based. More on the design: dose 50 mg/kg.
Series [12] can be described thus: Drug level in human MDA-MB-361 cells implanted mouse tumor at 50 mg/kg, iv after 8 hrs. Format: ADME, organism-based, Neoplasm. More on the design: dose 50 mg/kg, route intravenous. As to conditions: read-out: Drug uptake.
The nature of another series: in vitro. The following applies: rat, liver microsomes.
In series [13] the test system is Mus musculus. In words: Antitumor activity against human MDA-MB-361 cells implanted in mouse assessed as suppression of Akt S473 phosphorylation at 100 mg/kg, iv after 8 hrs. Format: functional, organism-based. Further details: dose 100 mg/kg.
Series [14] can be described thus: Solubility at pH 3. Format: physicochemical. The following applies: buffer.
Series [15] has as its system Mus musculus. In words: Antitumor activity against human MDA-MB-361 cells implanted in mouse assessed as suppression of S6 phosphorylation at 100 mg/kg, iv after 8 hrs. Format: functional, organism-based. More on the design: dose 100 mg/kg.
Series [16] relates to MDA-MB-361. In words: Antitumor activity against human MDA-MB-361 cells implanted in mouse assessed as inhibition of regrowth at until day 16 and 20 at 50 mg/kg, iv once daily for 5 days. Format: functional, organism-based. More on the design: dose 50 mg/kg.
The target in series [17] is Phosphatidylinositol 4,5-bisphosphate 3-kinase catalytic subunit beta isoform (Homo sapiens, UniProt P42338). In words: Inhibition of PI3Kbeta.
Chain of Phosphatidylinositol 4,5-bisphosphate 3-kinase catalytic subunit beta isoform (P42338 whole entry, canonical isoform): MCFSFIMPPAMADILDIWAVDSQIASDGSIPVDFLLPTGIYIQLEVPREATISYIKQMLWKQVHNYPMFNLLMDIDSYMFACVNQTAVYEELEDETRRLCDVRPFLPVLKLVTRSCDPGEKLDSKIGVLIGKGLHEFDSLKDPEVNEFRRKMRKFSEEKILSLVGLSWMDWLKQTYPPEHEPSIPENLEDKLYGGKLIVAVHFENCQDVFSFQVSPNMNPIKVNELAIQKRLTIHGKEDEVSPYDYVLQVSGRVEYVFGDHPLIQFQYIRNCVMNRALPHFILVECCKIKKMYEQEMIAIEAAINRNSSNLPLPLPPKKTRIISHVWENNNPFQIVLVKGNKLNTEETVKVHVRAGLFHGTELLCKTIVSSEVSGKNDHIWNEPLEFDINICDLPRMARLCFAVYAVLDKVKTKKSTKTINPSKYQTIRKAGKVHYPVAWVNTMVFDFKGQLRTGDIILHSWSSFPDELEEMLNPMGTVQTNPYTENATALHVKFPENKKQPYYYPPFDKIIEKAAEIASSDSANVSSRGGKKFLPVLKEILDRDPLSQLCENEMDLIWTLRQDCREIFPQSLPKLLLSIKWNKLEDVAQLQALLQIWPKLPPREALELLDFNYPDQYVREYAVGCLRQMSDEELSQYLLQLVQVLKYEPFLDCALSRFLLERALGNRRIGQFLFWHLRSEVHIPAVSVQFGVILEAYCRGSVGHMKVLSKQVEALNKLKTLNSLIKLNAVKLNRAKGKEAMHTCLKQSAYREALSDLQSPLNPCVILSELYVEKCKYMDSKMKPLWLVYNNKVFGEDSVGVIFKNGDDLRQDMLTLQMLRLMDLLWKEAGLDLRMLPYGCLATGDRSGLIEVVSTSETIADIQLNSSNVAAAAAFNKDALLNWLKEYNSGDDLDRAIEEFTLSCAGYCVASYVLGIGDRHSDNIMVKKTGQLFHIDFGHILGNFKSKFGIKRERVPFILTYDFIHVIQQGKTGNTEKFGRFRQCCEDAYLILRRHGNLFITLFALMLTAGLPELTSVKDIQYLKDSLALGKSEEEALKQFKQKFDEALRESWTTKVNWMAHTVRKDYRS
In series [18] the test system is Mus musculus. In words: Antitumor activity against human MDA-MB-361 cells implanted in mouse assessed as suppression of P70S6K phosphorylation at 100 mg/kg, iv after 8 hrs. More on the design: dose 100 mg/kg. Format: functional, organism-based.
For series [19], the system named is Mus musculus. In words: Antitumor activity against human MDA-MB-361 cells implanted in mouse assessed as […] of cleavage of PARP at 100 mg/kg, iv after 8 hrs. Format: functional, organism-based. Further details: dose 100 mg/kg.
Series [20] can be described thus: Plasma concentration in human MDA-MB-361 cells implanted mouse at 50 mg/kg, iv after 8 hrs. Format: ADME, organism-based. More on the design: dose 50 mg/kg, route intravenous.
Series [21] concerns Mus musculus. In words: Antitumor activity against human MDA-MB-361 cells implanted in mouse assessed as suppression of Akt S473 phosphorylation at 50 mg/kg, iv after 8 hrs. Format: functional, organism-based. Further details: dose 50 mg/kg.
Series [22] can be described thus: Metabolic stability in mouse liver microsomes assessed as half life. Format: ADME, Microsome.
The subject of series [23] is Mus musculus. In words: Antitumor activity against human MDA-MB-361 cells implanted in mouse assessed as suppression of Akt T308 phosphorylation at 100 mg/kg, iv after 8 hrs. Format: functional, organism-based. Further details: dose 100 mg/kg.
Series [24] relates to MDA-MB-361. In words: Antitumor activity against human MDA-MB-361 cells implanted in mouse assessed as inhibition of regrowth at until day 16 and 20 at 25 mg/kg, iv once daily for 5 days. Format: functional, organism-based. More on the design: dose 25 mg/kg.
In series [25] the test system is MDA-MB-361. In words: Antitumor activity against human MDA-MB-361 cells implanted in mouse assessed as inhibition of regrowth at until day 70 at 100 mg/kg, iv once daily for 5 days. Format: functional, organism-based. Further details: dose 100 mg/kg.

Chain of Phosphatidylinositol 4,5-bisphosphate 3-kinase catalytic subunit gamma isoform (P48736 whole entry, canonical isoform): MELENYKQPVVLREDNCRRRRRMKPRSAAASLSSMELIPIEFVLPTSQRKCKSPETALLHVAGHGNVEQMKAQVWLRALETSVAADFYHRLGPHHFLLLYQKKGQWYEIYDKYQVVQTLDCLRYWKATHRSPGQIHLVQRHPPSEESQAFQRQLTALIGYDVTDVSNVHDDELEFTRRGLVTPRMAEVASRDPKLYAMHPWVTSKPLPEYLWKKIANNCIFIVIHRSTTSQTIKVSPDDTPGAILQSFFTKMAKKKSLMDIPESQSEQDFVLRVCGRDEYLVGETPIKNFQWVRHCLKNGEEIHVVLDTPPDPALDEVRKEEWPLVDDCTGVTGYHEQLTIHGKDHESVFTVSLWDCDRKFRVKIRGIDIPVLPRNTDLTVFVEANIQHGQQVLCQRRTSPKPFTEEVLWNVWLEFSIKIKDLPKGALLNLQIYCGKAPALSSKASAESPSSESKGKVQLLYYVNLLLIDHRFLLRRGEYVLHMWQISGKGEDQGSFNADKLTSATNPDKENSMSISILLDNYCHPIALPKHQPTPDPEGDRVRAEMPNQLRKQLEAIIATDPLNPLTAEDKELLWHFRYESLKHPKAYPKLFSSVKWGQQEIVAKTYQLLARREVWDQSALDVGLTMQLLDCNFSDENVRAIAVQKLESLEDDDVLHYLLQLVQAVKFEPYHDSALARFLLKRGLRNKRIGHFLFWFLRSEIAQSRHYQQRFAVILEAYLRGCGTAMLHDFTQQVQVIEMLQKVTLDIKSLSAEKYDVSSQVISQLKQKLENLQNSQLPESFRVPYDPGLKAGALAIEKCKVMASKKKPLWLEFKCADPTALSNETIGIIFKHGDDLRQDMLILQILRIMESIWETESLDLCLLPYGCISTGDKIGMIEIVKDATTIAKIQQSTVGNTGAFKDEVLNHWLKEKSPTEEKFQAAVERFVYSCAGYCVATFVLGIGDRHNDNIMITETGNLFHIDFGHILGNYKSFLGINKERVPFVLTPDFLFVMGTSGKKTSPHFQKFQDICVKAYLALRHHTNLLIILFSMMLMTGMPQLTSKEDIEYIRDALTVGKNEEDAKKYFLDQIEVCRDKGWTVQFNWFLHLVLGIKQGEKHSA

As for `CC(C)n1nnc2c(N3CCOCC3)nc(-c3ccc(NC(=O)Nc4ccc(CO)cc4)cc3)nc21`, the IC50 in series [1] is 24.8 nM; in series [2], 0.32 nM; with MDA-MB-361 [3] it was under 30 nM; in series [4], 8 nM; in series [5], 3.5 nM; in the series with PC-3 it was 55 nM.

Consider `CCn1nnc2c(N3CCOCC3)nc(-c3ccc(NC(=O)Nc4ccc(C(=O)N5CCN(C)CC5)cc4)cc3)nc21`, for which the result with Mus musculus [6], in the series with Mus musculus [8], with Mus musculus [10], in the series with Mus musculus [11], in the series on Mus musculus [13] and in the series with Mus musculus [15] was Active. The outcome in the series on Mus musculus [18], in the series with Mus musculus [19], in the series on Mus musculus [21], in the series with Mus musculus [23] and in the series on MDA-MB-361 [25] was Active. Also, the Activity result in the series filed under Mus musculus [7] was “Non-toxic”. In addition, the figures for the IC50 (in the series “cells”; in series [2]; in [17]) were 5 nM, 1.7 nM and 7 nM, respectively. Further, the half-life was over 30 min in series [9], 15 min in the series “in vitro” and over 30 min in series [22]. In addition, the concentration at 8 h was 2220 ng/mL in series [12] and 525 ng/mL in series [20]. The molecule also registered a solubility in series [14] of 100 µg/mL (≈ 175 µM). Besides, the outcome in the series with MDA-MB-361 [16] and with MDA-MB-361 [24] was inactive.
